{"source": "patent US20090291857A1", "about": "“METHODS TO IDENTIFY INHIBITORS OF THE UNFOLDED PROTEIN RESPONSE” (THE BOARD OF TRUSTEES OF THE LELAND STANFORD JUNIOR …, priority 2006, published 2009)", "key": {"JNK1": {"tested_on": "JNK1", "test": "JNK1 activation under ER stress", "type": "cell-based, human", "conditions": "2.5 μM, 2 hour preincubation, Tm 4 μg/ml 1.5 hrs", "description": "HT1080 cells were exposed to DMSO vehicle (lane 1), irestatin 9389 (2.5 μM; lane 2) for 16 hours or Tm (5 μg/ml; lane 3) for 8 hours. Following treatments, cells were harvested, lysed, and analyzed by immunoblotting using anti-Grp78 antibody (top) or anti-actin (bottom) as a loading control. B. Effect of irestatin 9389 on IRE1α expression and kinase function. HT1080 cells were preincubated for 16 hours with either vehicle or irestatin 9389 (2.5 μM), followed by addition of Tm (5 μg/ml) for the indicated times. Cell lysates were analyzed by Western immunoblotting using anti-IRE1α (bottom) or anti-phospho-IRE1α antibodies (top). C. Effect of irestatins on JNK1 activation under ER stress. HT1080 cells were untreated (lane 1), exposed to TNF-α (10 ng/ml, 10 min), or Tm (4 μg/ml, 1.5 hrs) (lanes 3-8) following a 2 hour preincubation in the presence of vehicle (lane 3) or the indicated irestatins (2.5 μM; lanes 4-8). Lysates were analyzed by Western blot using antisera specific for phospho-JNK1 (top) or total JNK1 (bottom). […] F. Quantification of RNA cleavage kinetics. […] Samples were analyzed as in (E).\nActivation of IRE1α is preceded by ATP binding and autophosphorylation, and the IRE1α kinase is required for endonuclease activity. […] Cells were then harvested at regular intervals, and activation of the IRE1α kinase was assessed by immunoblotting using anti-phospho-IRE1α antisera."}, "HT1080 cells": {"tested_on": "HT1080 cells", "test": "Clonogenic survival / colony formation assay, HT1080", "type": "cell-based, human", "conditions": "2.5 μM", "description": "Several of the candidate irestatins were tested in a hypoxia clonogenic survival assay. […] HT1080 fibrosarcoma cells stably were treated with 1 uM of the indicated irestatin or left untreated, and incubated in hypoxia (0.01% oxygen) for 48 hrs at 37° C. Cells were harvested and counted, and allowed to form colonies under normal oxygen tension. Survival rate is expressed as the fraction of colonies formed divided by the total number of cells seeded for each condition. For all experiments, cells were plated in triplicate, and all experiments were repeated at least three times. These experiments were repeated using MiaPaCa2 cells in place of the HT 1080 fibrosarcoma cells.\nFor hypoxia survival assays, cells were grown in 60 mm dishes until reaching at 50-70% confluence and shifted to hypoxia (0.1% O2) for 48 hrs. Cells were trypsinized, counted using a hemocytometer, and replated in triplicate at 1,000-20,000 cells per plate in normal culture medium. After 10-12 days of growth under normal oxygen conditions, colonies were stained with 0.2% crystal violet in ethanol and counted. Survival values are expressed as the number of colonies divided by the total number of cells seeded for each condition, normalized to the plating efficiency under normal oxygen conditions. […]\nA. Effect of irestatin 9389 on PERK and ATF6 pathways. […] D. Quantification of clonogenic survival assay. […]"}}}
{"smiles": "Cc1csc(NC(=O)CSc2nc3c(c(C(F)(F)F)c2C#N)CCC3)n1", "note": "[Compound 9389]", "values": [{"measurement": "phosphorylation of JNK1 during Tm-induced ER stress", "setting": "JNK1", "value": "failed to block the phosphorylation of JNK1"}, {"measurement": "colony formation after hypoxia", "setting": "HT1080 cells; hypoxia 48 hours", "value": "strongly inhibited colony formation"}, {"measurement": "survival of HT1080 cells under normal oxygen", "setting": "HT1080 cells; normal oxygen conditions", "value": "negligible effect"}]}
